System: urease enzyme
Experiment: Testing Glycine Hydroxamate: ammonia odor of treated water loaded with urine and fecal matter
Conditions: for odor of ammonia: 0.04 grams in 200 ml water with bronopol, citric acid, sodium bicarbonate, sulfamic acid, fragrance, approximately 80° F., after 7 days
Method: To each of two flask, 200 ml of distilled water was combined with 0.04 grams of bronopol, 0.04 grams of either acetylhydroxamic acid or 0.04 grams of glycine hydroxamate, 0.10 grams of citric acid, 0.023 grams sodium bicarbonate, 0.027 grams of sulfamic acid, and 0.04 grams of mulberry fragrance. To each sample, 9 ml of urine and 1.5 grams of fecal matter was added and swirled.

CC(=O)NO [acetylhydroxamic acid, reference compound]
odor of ammonia: no detectable odor of ammonia

NCC(=O)NO [glycine hydroxamate]
odor of ammonia: no detectable odor of ammonia
performance compared with acetylhydroxamic acid (under test conditions): comparable to acetylhydroxamic acid
